Counter-ions that a name gives are not always drawn. Residues, ends and D or L forms follow the SMILES beside them.
Tests used:
Format in all cases: biochemical
Settings in all cases: FDA-approved drug screen; compared to DMSO
[1] = molecular target: T1, recombinant PRL-1 (Homo sapiens, UniProt Q93096); assay: In vitro phosphatase assay (DiFMUP hydrolysis), PRL-1; note: test concentration or dose not given here
T1 construct: 6xHis (N, cleaved yes); made in house; host or cells: E. coli One Shot BL21 Star
T1 sequence (Q93096 1-173): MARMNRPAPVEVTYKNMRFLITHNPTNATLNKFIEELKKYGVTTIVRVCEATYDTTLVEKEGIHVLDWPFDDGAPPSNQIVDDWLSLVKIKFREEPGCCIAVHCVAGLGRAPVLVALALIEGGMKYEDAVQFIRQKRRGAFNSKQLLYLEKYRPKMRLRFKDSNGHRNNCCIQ

[2] = molecular target: T2, recombinant PRL-2 (Homo sapiens, UniProt Q12974); assay: In vitro phosphatase assay (DiFMUP hydrolysis), PRL-2;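 note: PRL-2 activity read as DiFMUP hydrolysis after 20 min at room temperature with drug, enzyme first pre-reduced at 4 °C for 20 min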
T2 construct: 6xHis (N, cleaved yes); made in house; host or cells: E. coli One Shot BL21 Star
T2 sequence (Q12974 1-167): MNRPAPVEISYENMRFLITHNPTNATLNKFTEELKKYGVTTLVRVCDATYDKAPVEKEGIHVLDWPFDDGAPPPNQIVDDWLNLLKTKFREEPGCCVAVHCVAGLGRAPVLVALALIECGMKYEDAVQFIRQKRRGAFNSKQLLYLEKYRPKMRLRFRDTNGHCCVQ

[3] = molecular target: T3, recombinant PRL-3 (Homo sapiens, UniProt O75365); assay: In vitro phosphatase assay (DiFMUP hydrolysis), PRL-3; note: test concentration or dose not given here
T3 construct: 6xHis (N, cleaved yes); made in house; host or cells: E. coli One Shot BL21 Star
T3 sequence (O75365 whole entry): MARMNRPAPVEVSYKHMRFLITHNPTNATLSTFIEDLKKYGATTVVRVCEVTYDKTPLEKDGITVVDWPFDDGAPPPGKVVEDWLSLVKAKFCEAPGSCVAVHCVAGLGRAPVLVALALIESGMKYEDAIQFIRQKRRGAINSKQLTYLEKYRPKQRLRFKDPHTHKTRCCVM

Structure (SMILES) | % Phosphatase Activity (compared to DMSO) PRL-1 [1] | % Phosphatase Activity (compared to DMSO) PRL-2 [2] | % Phosphatase Activity (compared to DMSO) PRL-3 [3]
COc1ccc(C(=O)N2CCCC2=O)cc1 [Aniracetam] | 102% | 104% | 75%
CCCC(CCC)C(=O)O[C@H]1C[C@H]2CC[C@@H](C1)[N+]2(C)C [Anisotropine Methylbromide] | 111% | 108% | 77%
c1ccc(CN(CC2=NCCN2)c2ccccc2)cc1 [Antazoline HCl] | 91% | 104% | 76%
Cc1cc(=O)n(-c2ccccc2)n1C [Antipyrine] | 98% | 107% | 87%
N#CC1(c2ccc(NC(=O)c3cccnc3NCc3ccncc3)cc2)CCCC1 [Apatinib] | 100% | 106% | 88%
COc1ccc(-n2nc(C(N)=O)c3c2C(=O)N(c2ccc(N4CCCCC4=O)cc2)CC3)cc1 [Apixaban] | 102% | 132% | 80%
CCOc1cc([C@@H](CS(C)(=O)=O)N2C(=O)c3cccc(NC(C)=O)c3C2=O)ccc1OC [Apremilast (CC-10004)] | 100% | 78% | 86%
C[C@@H](O[C@H]1OCCN(Cc2n[nH]c(=O)[nH]2)[C@H]1c1ccc(F)cc1)c1cc(C(F)(F)F)cc(C(F)(F)F)c1 [Aprepitant] | 104% | 94% | 80%
CN(C)CCOC(c1ccc(Cl)cc1)c1ccccn1.O=C(O)/C=C\C(=O)O (stereo not drawn) [ArbinoxaMine Maleate] | 100% | 77% | 91%
COC(=O)C1=CCCN(C)C1 [Arecoline] | 98% | 131% | 84%
CC1CNc2c(cccc2S(=O)(=O)N[C@@H](CCCNC(=N)N)C(=O)N2CC[C@@H](C)C[C@@H]2C(=O)O)C1 (stereo partly drawn) [Argatroban] | 104% | 100% | 80%
O=C1CCc2ccc(OCCCCN3CCN(c4cccc(Cl)c4Cl)CC3)cc2N1 [Aripiprazole] | 100% | 111% | 103%
NC(=O)C[S@@+]([O-])C(c1ccccc1)c1ccccc1 [Armodafinil] | 94% | 90% | 73%
CO[C@H]1O[C@@H]2O[C@@]3(C)CC[C@H]4[C@H](C)CC[C@@H]([C@H]1C)[C@@]24OO3 [Artemether] | 87% | 96% | 85%
C[C@@H]1CC[C@H]2[C@@H](C)C(=O)O[C@@H]3O[C@@]4(C)CC[C@@H]1[C@]32OO4 [Artemisinin] | 100% | 90% | 80%
CCCNC(C)C(=O)Nc1c(C)csc1C(=O)OC (stereo not drawn) [Articaine HCl] | 110% | 109% | 84%
CN1CC2c3ccccc3Oc3ccc(Cl)cc3C2C1 (stereo not drawn) [Asenapine] | 98% | 107% | 79%
COC(=O)[C@H](Cc1ccccc1)NC(=O)[C@@H](N)CC(=O)O [Aspartame] (H-Asp-Phe-OMe) | 92% | 95% | 85%
CC(=O)Oc1ccccc1C(=O)O [Aspirin] | 126% | 110% | 102%
COC(=O)N[C@H](C(=O)N[C@@H](Cc1ccccc1)[C@@H](O)CN(Cc1ccc(-c2ccccn2)cc1)NC(=O)[C@@H](NC(=O)OC)C(C)(C)C)C(C)(C)C.O=S(=O)(O)O [Atazanavir Sulfate] | 95% | 83% | 83%
COC(=O)N[C@H](C(=O)N[C@@H](Cc1ccccc1)[C@@H](O)CN(Cc1ccc(-c2ccccn2)cc1)NC(=O)[C@@H](NC(=O)OC)C(C)(C)C)C(C)(C)C [Atazanavir] | 94% | 89% | 85%
CCC1(c2cnc[nH]2)Cc2ccccc2C1.Cl [Atipamezole hydrochloride] | 98% | 106% | 88%
CCC1(c2cnc[nH]2)Cc2ccccc2C1 [Atipamezole] | 94% | 109% | 87%
CNCC[C@@H](Oc1ccccc1C)c1ccccc1 [Atomoxetine HCl] | 98% | 109% | 89%
CC(C)c1c(C(=O)Nc2ccccc2)c(-c2ccccc2)c(-c2ccc(F)cc2)n1CC[C@@H](O)C[C@@H](O)CC(=O)O [Atorvastatin Calcium] | 100% | 87% | 74%
O=C1C(O)=C([C@H]2CC[C@H](c3ccc(Cl)cc3)CC2)C(=O)c2ccccc21 [Atovaquone] | 96% | 88% | 90%

Reference: article PMC8119466, “A screen of FDA-approved drugs identifies inhibitors of protein tyrosine phosphatase 4A3 (PTP4A3 or PRL-3)” (Scientific Reports, 2021)
